According to patent publication US7888286B2, “Method of selectively controlling morning glory (Ipomoea) spp” (Bayer CropScience AG, priority 2006, dated 2011):
Structures can show the parent of a compound that is named as a salt.

What was measured:
morning glory spp. [1] = test: Herbicidal property on weeds; format: in vivo; settings: for Herbicidal activity: all of the tested morning glory spp.
Abutilon theophrasti = test: Herbicidal property on weeds; settings: in vivo
[2] = tested on: morning glory spp. such as Ipomoea triloba L. and Ipomoea hederacea Jacq.; test: Morning glory spp. control test with bialaphos solution (soybean field); format: in vivo; settings: for Herbicidal effect 1 week after: water 100 L/10 a, sprayed up to 20 cm above ground
Protocol: On Aug. 9, 2005, a bialaphos solution (active ingredient amount: 18%, used in the form of the sodium salt bialaphos-sodium, amount calculated for bialaphos) was sprayed (solution amount: 500 to 1500 mL/10 a, water amount: 100 L/10 a) to morning glory spp. (height: 55 cm to 70 cm) such as Ipomoea triloba L. and Ipomoea hederacea Jacq. generated between ridges in a soybean field and coiled around soybean, from land surface up to a height of 20 cm above ground, and the herbicidal effect thereafter was observed.

Ipomoea lacunosa L. = test: Morning glory spp. control test: glufosinate (salt) sprayed only on upper portion of stem (pot test); format: in vivo; parameters: key to Effect, leaf 6 / Effect, leaf 5 / Effect, leaf 4 / Effect, leaf 3 / Effect, leaf 2 / Effect, leaf 1 / Effect, root / Effect, peak portion of stem / Effect, leaf 8 / Effect, leaf 7: +++ complete death; ++ almost death; + partial death; − no effect
Protocol: In the case of spraying of glufosinate (salt) only on the upper portion of morning glory spp:
Ipomoea lacunosa L. (eight leaves) in a pot was tested. A 200-fold diluted solution of glufosinate (salt) was sprayed only on the upper portion of a stem while preventing spraying on the lower portion thereof. Thereafter, effects on respective portions were observed.

HIROHAFUURINHOZUKI = test: Herbicidal property on weeds; settings: in vivo
Solanum carolinense = test: Herbicidal property on weeds; settings: in vivo
morning glory spp. [3] = test: Control machine-spraying of glufosinate (salt) on soybean inter-ridge: herbicidal effect; format: in vivo; settings: 500 mL/10 a in 100 L/10 a water
Protocol: (§1) Soybean cultivation in the Tokai region is often carried out with large scale by farming associates and large scale farmhouses. Under such circumstances, morning glory spp. cause a serious problem in soybean fields during its growth period, and its controlling method is required to be established quickly. In soybean fields in Anjo City, Aichi Prefecture showing a problem of morning glory spp., a test for proving applicability of controlling morning glory spp. was performed using a control machine-spraying intending laborsaving.
(§2) A commercially available spraying apparatus was attached to the front side of a riding-type control machine, and glufosinate was sprayed from near ground edge. The nozzle position can be varied depending on ridge width and soybean height. In a theory of spraying a herbicide, the herbicide is introduced from a herbicide tank through a hose so that the herbicide can be sprayed on a lower part between ridges (suspending mode). Some farmhouses devise by themselves this spraying apparatus.
In spraying (FIGS. 1, 2 and 3), morning glory spp. developed almost all over the field, and some of them coiled around soybean, the peak portion thereof extending up to over the head portion of soybean. FIG. 1 is a photograph showing full view of glufosinate spraying. FIG. 2 is a photograph showing glufosinate (salt) sprayed part. FIG. 3 is a photograph showing a herbicidal process of glufosinate (salt). […] FIG. 4 is a photograph showing the killing effect of glufosinate (salt) ranging to the peak portion (shown with an arrow) of the stem of Ipomoea triloba L. (14 days after spraying, August 23). […] This effect appeared even in the peak portion of the stem extending up to over the head portion of the soybean, and in this portion, leaves and stems of morning glory spp. turned to yellow. […] From these phenomena, it was believed that the morning glory spp. show very higher sensitivity to glufosinate (salt) than soybean.

soybean = test: Control machine-spraying of glufosinate (salt) on soybean inter-ridge: phytotoxicity and bean weight of soybean; format: in vivo; settings: for Bean weight: soybean field with rampant morning glory spp., 500 mL/10 a sprayed August 9, crop November 11, non-sprayed district 96 ± 21
Protocol: as §1, §2

Aeschynomene indica = test: Herbicidal property on weeds; settings: in vivo
Sida spinosa L. = test: Herbicidal property on weeds; settings: in vivo
Ipomoea triloba L. = test: Morning glory spp. control test: glufosinate (salt) sprayed only on lower half portion of hill; format: in vivo; parameters: key: +++ complete death; ++ almost death; + partial death; − no effect; settings: treated Aug. 13, 2005, examined August 23
Protocol: (§3) In the case of spraying of glufosinate (salt) only on the lower half portion of a hill of morning glory spp:
(§4) Ipomoea hederacea Jacq. and Ipomoea triloba L. generated in the form of grapevine and at the edge of a soybean field in Anjo City, Aichi Prefecture were tested. A 200-fold diluted solution of glufosinate was sprayed only on the lower half portion of the hill while covering the upper half portion thereof with plastic film so that the solution was not sprayed thereon. Thereafter, effects on the lower and upper half portions were observed.

Ipomoea hederacea Jacq. = test: as above; format: in vivo; parameters: key to Effect, upper half portion of hill / Effect, lower half portion of hill: +++ complete death; ++ almost death; + partial death; − no effect
Protocol: as §3, §4

[4] = not sprayed, 200-fold diluted solution sprayed from peak to between sixth and seventh leaves, examined November 6
[5] = sprayed region, 200-fold diluted solution sprayed on upper portion of stem, treated Oct. 23, 2005, examined November 6
[6] = scattering to soybean, 500 mL/10 a

Structure (SMILES): CC(C)N1C(=O)c2ccccc2NS1(=O)=O [Pentazone]
- Herbicidal activity (morning glory spp. [1]): lower activity
- Herbicidal activity (Abutilon theophrasti): high activity

Structure (SMILES): C[C@H](NC(=O)[C@H](C)NC(=O)[C@@H](N)CCP(C)(=O)O)C(=O)O [bialaphos solution, bialaphos]
- Herbicidal effect 1 week after ([2]; solution amount 500 mL/10 a): died up to the peak portion of vine
- Herbicidal effect 1 week after ([2]; solution amount 1000 mL/10 a): died up to the peak portion of vine
- Herbicidal effect 1 week after ([2]; solution amount 1500 mL/10 a): died up to the peak portion of vine
- Onset of effect after the treatment ([2]; sprayed from land surface up to 20 cm above ground, 500 to 1500 mL/10 a): observed from the next day after the treatment

Structure (SMILES): CP(=O)(O)CCC(N)C(=O)O (stereo not shown) [glufosinate (salt), glufosinate]
- Herbicidal activity at low herbicidal amount (morning glory spp. [1]; 100 mL/10 a): high activity
- Herbicidal activity (morning glory spp. [1]): high activity
- Effect, leaf 1 (Ipomoea lacunosa L.; [4]): −
- Effect, leaf 2 (Ipomoea lacunosa L.; [4]): −
- Effect, leaf 3 (Ipomoea lacunosa L.; [4]): −
- Effect, leaf 4 (Ipomoea lacunosa L.; [4]): −
- Effect, leaf 5 (Ipomoea lacunosa L.; [4]): ++
- Effect, leaf 6 (Ipomoea lacunosa L.; [4]): ++
- Effect, root (Ipomoea lacunosa L.; [4]): −
- Effect in the lower leaves and in root after spraying only the upper portion of the stem (Ipomoea lacunosa L.; see Table 2): not observed
- Effect under the sprayed region after spraying only the upper portion of the stem (Ipomoea lacunosa L.; see Table 2): observed in one to two leaves under the sprayed region
- Effect, leaf 7 (Ipomoea lacunosa L.; [5]): +++
- Effect, leaf 8 (Ipomoea lacunosa L.; [5]): +++
- Effect, peak portion of stem (Ipomoea lacunosa L.; [5]): +++
- Herbicidal activity (HIROHAFUURINHOZUKI): high activity
- Herbicidal activity (Solanum carolinense): high activity
- Herbicidal activity (Abutilon theophrasti): high activity
- Herbicidal effect 4 days after spraying (morning glory spp. [3]; August 13): most of leaves at grapevine-form parts of the morning glory spp. died
- Herbicidal effect 14 days after spraying (morning glory spp. [3]; August 23): most of the morning glory spp. died up to the peak portion of the stem
- Onset of herbicidal effect after spraying (morning glory spp. [3]; soybean field): observed from the next day after spraying
- Phytotoxicity in soybean on spraying only the lower portion of a stem of morning glory spp. (soybean; control machine spraying in soybean field): scarce phytotoxicity
- Phytotoxicity in the cotyledon and the first leaf of soybean (soybean; [6]): observed
- Phytotoxicity in the upper leaves of soybean (soybean; [6]): little phytotoxicity
- Bean weight (soybean; listed as Glufosinate (salt)): 193 ± 29 kg/10 a
- Bean weight (soybean; listed as glufosinate): 193 kg/10 a
- Herbicidal activity (Aeschynomene indica): high activity
- Herbicidal activity (Sida spinosa L.): high activity
- Effect, lower half portion of hill (Ipomoea triloba L.; 200-fold diluted solution sprayed on lower half portion (sprayed portion)): +++
- Effect, upper half portion of hill (Ipomoea triloba L.; 200-fold diluted solution sprayed on lower half portion only, upper half not sprayed, hills around 70 cm): +++
- Effect, lower half portion of hill (Ipomoea hederacea Jacq.; 200-fold diluted solution sprayed on lower half portion (sprayed portion), treated Aug. 13, 2005, examined August 23): +++
- Effect, upper half portion of hill (Ipomoea hederacea Jacq.; 200-fold diluted solution sprayed on lower half portion only, upper half not sprayed, treated Aug. 13, 2005, examined August 23, hills around 70 cm): +++
- Where activity appeared after spraying only the lower half portion of the hill (Ipomoea hederacea Jacq.; morning glory spp. (Ipomoea hederacea Jacq. and Ipomoea triloba L., see Table 1)): appeared not only in the lower half portion of the hill but also in the peak thereof

Structure (SMILES): CC(C)N.O=C(O)CNCP(=O)(O)O [glyphosate isopropylammonium]
- Herbicidal activity at the field level (morning glory spp. [1]; at the field level in this test range): insufficient
- Manifestation of the activity (morning glory spp. [1]; on these plants (morning glory spp. and the other tested weeds)): specifically slow manifestation of the activity
